According to US20090042964A1, “AMINO-5-[SUBSTITUTED-4-(DIFLUOROMETHOXY)PHENYL]-5-PHENYLIMIDAZOLONE COMPOUNDS AS BETA-SECRETASE INHIBITORS” (Wyeth, priority 2007, published 2009):
Like-named read-outs stand apart in the source and are kept apart here.

Target: human BACE1 (Homo sapiens, UniProt P56817)
Assay: Fluorescent kinetic assay, evaluation of BACE1 binding affinity of test compounds
Type: biochemical
Settings: 10 nM human BACE1, 25 μM substrate WABC-6, pH 4.5, room temperature
Procedure: Concentration is determined by absorbance at 354 nm using an extinction coefficient of 18172 M^-1 cm^-1, the concentration of stock substrate is corrected, and the substrate stock stored in small aliquots in -80° C. […] Determination of Stock Enzyme Concentration: the stock concentration of each enzyme is determined by absorbance at 280 nm using an of 64150 M^-1 cm^-1 for hBACE1 and MuBACE1, 62870 M^-1 cm^-1 for hBACE2 in 6 M Guanidinium Hydrochloride (from Research Organics, Cat. # 5134G-2), pH 6. […] Biochem. 182, 319-326). Dilution and mixing steps: total reaction volume: 100 μL 2× inhibitor dilutions in buffer A (66.7 mM Na-Acetate, pH 4.5, 0.0667% CHAPS) were prepared, 4× enzyme dilution in buffer A (66.7 mM Na-Acetate, pH 4.5, 0.0667% CHAPS) were prepared, 100 μM substrate dilution in 1×PBS was prepared, and 50 μL 2× Inhibitor, 25 μL 100 μM substrate are added to each well of 96-well plate (from DYNEX Technologies, VWR #: 11311-046), immediately followed by 25 μL 4× enzyme (added to the inhibitor and substrate mix), and the fluorescence readings are initiated.

Chain of human BACE1 (P56817 46-501): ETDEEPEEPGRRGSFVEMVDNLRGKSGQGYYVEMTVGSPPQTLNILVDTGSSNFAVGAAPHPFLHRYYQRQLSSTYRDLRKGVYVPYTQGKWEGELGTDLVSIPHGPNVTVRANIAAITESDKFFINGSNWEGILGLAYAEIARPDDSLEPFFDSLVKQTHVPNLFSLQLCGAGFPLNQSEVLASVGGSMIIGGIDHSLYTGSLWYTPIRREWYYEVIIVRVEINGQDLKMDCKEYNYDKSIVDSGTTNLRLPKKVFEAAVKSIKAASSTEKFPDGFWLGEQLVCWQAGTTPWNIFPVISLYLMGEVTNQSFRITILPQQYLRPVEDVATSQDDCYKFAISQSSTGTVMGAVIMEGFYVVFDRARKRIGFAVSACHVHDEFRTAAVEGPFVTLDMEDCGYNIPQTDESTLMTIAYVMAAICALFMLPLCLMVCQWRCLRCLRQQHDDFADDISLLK

SMILES | IC50 (read-out: BACE1 IC50) | IC50 (BACE1 IC50 μM)
CN1C(=O)C(c2ccccc2)(c2ccc(OC(F)F)c(CCCl)c2)N=C1N (centres unmarked) [Example 141, 2-Amino-5-[4-(difluoromethoxy)-3-(2-chloroethyl)phenyl]-3-methyl-5-phenyl-3,5-dihydro-4H-imidazol-4-one] | < 0.1 µM | 
CCc1cc([C@]2(c3ccc(F)c(C#CC4CC4)c3)N=C(N)N(C)C2=O)ccc1OC(F)F [Example 147, (5R)-2-Amino-5-[3-(cyclopropylethynyl)-4-fluorophenyl]-5-[4-(difluoromethoxy)-3-ethylphenyl]-3-methyl-3,5-dihydro-4H-imidazol-4-one] | < 0.1 µM | 
CN1C(=O)[C@@](c2ccc(F)c(C#CC3CC3)c2)(c2ccc(OC(F)F)c(CCF)c2)N=C1N (single isomer, unassigned) [Example 94] | 0.11 to 1 µM | 
CN1C(=O)C(c2ccc(F)c(C#CCCF)c2)(c2ccc(OC(F)F)c(C3CC3)c2)N=C1N (centres unmarked) [Example 208, 2-amino-5-[3-cyclopropyl-4-(difluoromethoxy)phenyl]-5-[4-fluoro-3-(4-fluorobut-1-yn-1-yl)phenyl]-3-methyl-3,5-dihydro-4H-imidazol-4-one] | < 0.1 µM | 
CCOc1cccc(C2(c3ccc(OC(F)F)c(C)c3)N=C(N)N(C)C2=O)c1 (centres unmarked) [Example 41, 2-Amino-5-[4-(difluoromethoxy)-3-methylphenyl]-5-(3-ethoxyphenyl)-3-methyl-3,5-dihydro-4H-imidazol-4-one] | < 0.1 µM | 
CN1C(=O)C(c2cccc(C#CCCCF)c2)(c2ccc(OC(F)F)c(C3CC3)c2)N=C1N (centres unmarked) [Example 191, 2-amino-4-(3-cyclopropyl-4-(difluoromethoxy)phenyl)-4-(3-(5-fluoropent-1-ynyl)phenyl)-1-methyl-1H-imidazol-5(4H)-one] | < 0.1 µM | 
CCCOc1cc(C2(c3ccc(OC(F)F)c(C)c3)N=C(N)N(C)C2=O)ccc1F (stereo in doubt) [Example 116, (5S)-2-Amino-5-[4-(difluoromethoxy)-3-methylphenyl]-5-(4-fluoro-3-propoxyphenyl)-3-methyl-3,5-dihydro-4H-imidazol-4-one] | < 0.1 µM | 
CN1C(=O)C(c2cccc(C#CCCCO)c2)(c2ccc(OC(F)F)c(C3CC3)c2)N=C1N (centres unmarked) [Example 188, 2-amino-4-(3-cyclopropyl-4-(difluoromethoxy)phenyl)-4-(3-(5-hydroxypent-1-ynyl)phenyl)-1-methyl-1H-imidazol-5(4H)-one] | < 0.1 µM | 
CN1C(=O)C(c2ccccc2)(c2ccc(OC(F)F)c(C3CC3)c2)N=C1N (centres unmarked) [Example 10, 2-Amino-5-[3-cyclopropyl-4-(difluoromethoxy)phenyl]-3-methyl-5-phenyl-3,5-dihydro-4H-imidazol-4-one] |  | < 0.1 µM
CC#Cc1cccc([C@@]2(c3ccc(OC(F)F)c(C4CC4)c3)N=C(N)N(C)C2=O)c1 (single isomer, unassigned) [Example 169] | < 0.1 µM | 
COCCC#Cc1cccc([C@]2(c3ccc(OC(F)F)c(C4CC4)c3)N=C(N)N(C)C2=O)c1 (single isomer, unassigned) [Example 184] | 0.11 to 1 µM | 
Cc1cc([C@@]2(c3ccc(F)c(OCCF)c3)N=C(N)N(C)C2=O)ccc1OC(F)F [Example 112, (5S)-2-Amino-5-[4-(difluoromethoxy)-3-methylphenyl]-5-[4-fluoro-3-(2-fluoroethoxy)phenyl]-3-methyl-3,5-dihydro-4H-imidazol-4-one] | > 1 µM | 
COCC#Cc1cccc([C@]2(c3ccc(OC(F)F)c(C4CC4)c3)N=C(N)N(C)C2=O)c1 (single isomer, unassigned) [Example 182] | 0.11 to 1 µM | 
C/C=C/c1cc(C2(c3ccc(OC(F)F)c(C)c3)N=C(N)N(C)C2=O)ccc1F (centres unmarked) [Example 59, 2-Amino-5-[4-(difluoromethoxy)-3-methylphenyl]-5-[4-fluoro-3-((E)-prop-1-enyl)phenyl]-3-methyl-3,5-dihydro-4H-imidazol-4-one] | < 0.1 µM | 
CCc1cc(C2(c3ccc(F)c(OCCCF)c3)N=C(N)N(C)C2=O)ccc1OC(F)F (stereo in doubt) [Example 122, (5S)-2-Amino-5-[4-(difluoromethoxy)-3-ethylphenyl]-5-[4-fluoro-3-(3-fluoropropoxy)phenyl]-3-methyl-3,5-dihydro-4H-imidazol-4-one] | < 0.1 µM | 
COCC/C=C/c1cc(C2(c3ccc(OC(F)F)c(C)c3)N=C(N)N(C)C2=O)ccc1F (centres unmarked) [Example 60, 2-Amino-5-[4-(difluoromethoxy)-3-methylphenyl]-5-[4-fluoro-3-((E)-4-methoxy-but-1-enyl)phenyl]-3-methyl-3,5-dihydro-4H-imidazol-4-one] | < 0.1 µM | 
CC(C)C#Cc1cccc(C2(c3ccc(OC(F)F)c(C4CC4)c3)N=C(N)N(C)C2=O)c1 (centres unmarked) [Example 173, 2-amino-4-(3-cyclopropyl-4-(difluoromethoxy)phenyl)-1-methyl-4-(3-(3-methylbut-1-ynyl)phenyl)-1H-imidazol-5(4H)-one] | < 0.1 µM | 
CN1C(=O)[C@@](c2cccc(C#CC3CC3)c2)(c2ccc(OC(F)F)c(C3CC3)c2)N=C1N (single isomer, unassigned) [Example 178] | 0.11 to 1 µM | 
Cc1cc(C2(c3ccc(F)c(CF)c3)N=C(N)N(C)C2=O)ccc1OC(F)F (centres unmarked) [Example 22, 2-Amino-5-[4-(difluoromethoxy)-3-methylphenyl]-5-[4-fluoro-3-(fluoromethyl)phenyl]-3-methyl-3,5-dihydro-4H-imidazol-4-one] |  | 0.11 to 1 µM
COC/C=C/c1cccc(C2(c3ccc(OC(F)F)c(Cl)c3)N=C(N)N(C)C2=O)c1 (centres unmarked) [Example 66, 2-Amino-5-[3-chloro-4-(difluoromethoxy)phenyl]-5-[3-((E)-3-methoxyprop-1-enyl)phenyl]-3-methyl-3,5-dihydro-4H-imidazol-4-one] | < 0.1 µM | 
Cc1cc(C2(c3ccc(F)c(OCCCF)c3)N=C(N)N(C)C2=O)ccc1OC(F)F (centres unmarked) [Example 108, 2-Amino-5-[4-(difluoromethoxy)-3-methylphenyl]-5-[4-fluoro-3-(3-fluoropropoxy)phenyl]-3-methyl-3,5-dihydro-4H-imidazol-4-one] | < 0.1 µM | 
Cc1cc(C2(c3ccc(F)c(Br)c3)N=C(N)N(C)C2=O)ccc1OC(F)F (centres unmarked) [Example 32] |  | < 0.1 µM
CN1C(=O)C(c2ccccc2)(c2ccc(OC(F)F)c(C(F)(F)F)c2)N=C1N (centres unmarked) [Example 12, 2-Amino-5-[4-(difluoromethoxy)-3-(trifluoromethyl)phenyl]-3-methyl-5-phenyl-3,5-dihydro-4H-imidazol-4-one] |  | 0.11 to 1 µM
CCc1cc(C2(c3cccc(C#CCF)c3)N=C(N)N(C)C2=O)ccc1OC(F)F (centres unmarked) [Example 158, 2-Amino-5-[4-(difluoromethoxy)-3-ethylphenyl]-5-[3-(3-fluoroprop-1-yn-1-yl)phenyl]-3-methyl-3,5-dihydro-4H-imidazol-4-one] | < 0.1 µM | 
C/C=C/c1cccc(C2(c3ccc(OC(F)F)c(C)c3)N=C(N)N(C)C2=O)c1 (centres unmarked) [Example 61, 2-Amino-5-[4-(difluoromethoxy)-3-methylphenyl]-3-methyl-5-[((E)-3-prop-1-enyl)phenyl]-3,5-dihydro-4H-imidazol-4-one] | < 0.1 µM | 
CN1C(=O)C(c2ccc(OC(F)F)c(C3CC3)c2)(c2ccc(OC(F)F)c(C3CC3)c2)N=C1N [Example 194, 2-amino-4,4-bis(3-cyclopropyl-4-(difluoromethoxy)phenyl)-1-methyl-1H-imidazol-5(4H)-one] | 0.11 to 1 µM | 
